Values of other authors in patent EP1935412A2, “Pharmaceutical composition containing 5-chloro-1-[1-[3-(2-oxo-2,3-dihydro-1H-benzimidazol-1-yl)propyl]piperidine-4-yl]-1,3-dihydro-2H-benzimidazol-2-one and method of preparing same” (GALENIX DEVELOPPEMENT, priority 2006, dated 2008).

Settings: dans l'eau

Solubility in water: pratiquement insoluble dans l'eau
Structure (SMILES): O=c1[nH]c2ccccc2n1CCCN1CCC(n2c(=O)[nH]c3cc(Cl)ccc32)CC1 [dompéridone, 5-chloro-1-[1-[3-(2-oxo-2,3-dihydro-1H-benzimidazol-1-yl)propyl]pipéridin-4-yl]-1,3-dihydro-2H-benzimidazol-2-one]
